Eleven molecules from patent US9771351B2, “Wnt signaling inhibitor” (KYOWA HAKKO KIRIN CO., LTD., priority 2013, dated 2017) can be followed below.

One experiment concerns T-cell factor (TCF)-luciferase reporter using Wnt pathway as index. Briefly: Inhibitory activity against TCF-luciferase reporter using Wnt pathway as index (DLD-1/TCF-Luc cells). The format is cell-based, human. The note with it: 1 μmol/L; DLD-1/TCF-Luc cells; luciferase activity after 18 hours. As for the experimental part:
Test Example 1: Inhibitory Activity Against T-Cell Factor (TCF)-Luciferase Reporter Using Wnt Pathway as Index
The inhibitory activity of test compounds against Wnt pathway was evaluated by the following method.
A human colorectal adenocarcinoma cell line DLD-1 (Japanese Collection of Research Bioresources) was cultured in RPMI-1640 medium (Gibco/Life Technologies, Inc.) containing 10% fetal bovine serum (Gibco/Life Technologies, Inc.), 10 mmol/L of a 4-(2-hydroxyethyl)-1-piperazineethanesulfonic acid (HEPES) buffer solution (Gibco/Life Technologies, Inc.), 1 mmol/L of a sodium pyruvate solution (Gibco/Life Technologies, Inc.), 4.5 g/L of a D-(+)-glucose solution (Sigma-Aldrich, Inc.), 100 units/mL penicillin (Gibco/Life Technologies, Inc.) and 100 μg/mL of streptomycin (Gibco/Life Technologies, Inc.) under the conditions of 37° C. and 5% carbon dioxide gas. The DLD-1 cells were seeded in a 10 cm dish, and 20 μg of a luciferase gene plasmid pGL4.27 having a TCF responsive sequence inserted therein was transfected into the cells using 10 μL of Attractene (Qiagen, Inc.) according to the protocol attached to the product. A stably expressing cell line (DLD-1/TCF-Luc) was selected using […] of hygromycin B (Wako Pure Chemical Industries Ltd.). The DLD-1/TCF-Luc cells were detached with trypsin and seeded in a 384-well plate, and a test compound was added at different concentrations. After 18 hours, the luciferase activity was measured using Steady-Glo™ Luciferase Assay System (Promega, Inc.).
The inhibition ratio was obtained according to the following formula 1. The inhibition ratio (%) of the compound of the present invention at 1 μmol/L against the TCF-luciferase reporter using the Wnt pathway as an index is shown in Table 6. [Math. 1] Inhibition ratio (%)=100−{(luciferase activity when test compound was added)−(luciferase activity of blank)}/{(luciferase activity of control)−(luciferase activity of blank)}×100 Formula 1
In general terms: Reporter assays use an easily measured gene product as a stand-in for the process of interest.
For `N#Cc1cc(N2C(=O)N(CC3CCN(c4ncnc5cc(C(N)=O)ccc45)CC3)Cc3ccccc32)ccn1` [Compound 28, 4-(4-{[1-(2-Cyanopyridin-4-yl)-2-oxo-1,2-dihydroquinazolin-3(4H)-yl]methyl}piperidin-1-yl)quinazoline-7-carboxamido], the “Inhibition ratio (%) at 1 μmol/L” value came to 84%.

Take `N#Cc1cc(N2C(=O)N(CC3CCN(c4ncnc5cnc(C(N)=O)cc45)CC3)Cc3ccccc32)ccc1F` [Compound 45, 4-(4-{[1-(3-Cyano-4-fluorophenyl)-2-oxo-1,2-dihydroquinazolin-3(4H)-yl]methyl}piperidin-1-yl)pyrido[3,4-d]pyrimidine-6-carboxamido]: the “Inhibition ratio (%) at 1 μmol/L” value came to 86%.

For the molecule `N#Cc1cc(N2C(=O)N(CC3CCN(c4ncnc5cnc(C(N)=O)cc45)CC3)Cc3ncccc32)ccc1F` [Compound 46, 4-(4-{[1-(3-Cyano-4-fluorophenyl)-2-oxo-1,2-dihydropyrido[3,2-d]pyrimidin-3(4H)-yl]methyl}piperidin-1-yl)pyrido[3,4-d]pyrimidine-6-carboxamido], the “Inhibition ratio (%) at 1 μmol/L” value came to 84%.

Staying with this experiment, now noted: Homo sapiens, DLD-1, 18 h, read-out: Inhibition ratio (%) at 1 μmol/L.
Regarding `CN1CCN(C(=O)c2ccc3c(N4CCC(CN5Cc6ccccc6N(c6ccnc(C#N)c6)C5=O)CC4)ncnc3c2)CC1` [Compound 27, 4-[3-({1-[7-(4-Methylpiperazine-1-carbonyl)quinazolin-4-yl]piperidin-4-yl}methyl)-2-oxo-3,4-dihydroquinazolin-1(2H)-yl]picolinonitrile], the inhibition at 1 µM amounted to 88%.

For `N#Cc1cc(N2C(=O)N(CC3CCN(c4ncnc5[nH]ccc45)CC3)Cc3ccccc32)ccn1` [Compound 31, 4-(3-{[1-(7H-pyrrolo[2,3-d]pyrimidin-4-yl)piperidin-4-yl]methyl}-2-oxo-3,4-dihydroquinazolin-1(2H)-yl)picolinonitrile], the inhibition at 1 µM was found to be 74%.

As for `N#Cc1cc(N2C(=O)N(CC3CCN(c4nccn5c(=O)[nH]nc45)CC3)Cc3ccccc32)ccn1` [Compound 39, 4-(2-Oxo-3-{[1-(3-oxo-2,3-dihydro-[1,2,4]triazolo[4,3-a]pyrazin-8-yl)piperidin-4-yl]methyl}-3,4-dihydroquinazolin-1(2H)-yl)picolinonitrile], the inhibition at 1 µM amounted to 89%.

`N#Cc1cc(N2C(=O)N(CC3CCN(c4nccc5c(=O)[nH]cnc45)CC3)Cc3ccccc32)ccn1` [Compound 42, 4-(2-Oxo-3-{[1-(4-oxo-3,4-dihydropyrido[3,4-d]pyrimidin-8-yl)piperidin-4-yl]methyl}-3,4-dihydroquinazolin-1(2H)-yl)picolinonitrile]: the inhibition at 1 µM was 81%.

`N#Cc1cccc(N2C(=O)N(CC3CCN(c4ncnc5c4COCC5)CC3)Cc3ccccc32)c1` [Compound 43, 3-(3-{[1-(7,8-Dihydro-5H-pyrano[4,3-d]pyrimidin-4-yl)piperidin-4-yl]methyl}-2-oxo-3,4-dihydroquinazolin-1(2H)-yl)benzonitrile]: the inhibition at 1 µM was 85%.

The same experiment, now with this note: Homo sapiens; 1 μmol/L; DLD-1/TCF-Luc cells; luciferase activity after 18 hours; read-out: Inhibition ratio (%) at 1 μmol/L.
As to `N#Cc1cc(N2C(=O)N(CC3CCN(c4nccc5nc[nH]c(=O)c45)CC3)Cc3cc(F)ccc32)ccn1` [Compound 49, 4-(6-Fluoro-2-oxo-3-{[1-(4-oxo-3,4-dihydropyrido[4,3-d]pyrimidin-5-yl)piperidin-4-yl]methyl}-3,4-dihydroquinazolin-1(2H)-yl)picolinonitrile], the inhibition at 1 µM was determined as 82%.

With `N#Cc1ccc2c(c1)CN(CC1CCN(c3nccc4nc[nH]c(=O)c34)CC1)C(=O)N2c1ccnc(C(N)=O)c1` [Compound 51, 4-(6-Cyano-2-oxo-3-{[1-(4-oxo-3,4-dihydropyrido[4,3-d]pyrimidin-5-yl)piperidin-4-yl]methyl}-3,4-dihydroquinazolin-1(2H)-yl)picolinamide], the inhibition at 1 µM stood at 90%.

With `N#Cc1cc(N2C(=O)N(CC3CCN(c4ncnc5cc(C(N)=O)ncc45)CC3)Cc3cnccc32)ccc1F` [Compound 52, 4-(4-{[1-(3-Cyano-4-fluorophenyl)-2-oxo-1,2-dihydropyrido[4,3-d]pyrimidin-3(4H)-yl]methyl}piperidin-1-yl)pyrido[4,3-d]pyrimidine-7-carboxamido], the inhibition at 1 µM is 81%.
